The test system of series [1] is wound area of skin wound model mice. Nature of the series: Histopathological observation of wound area on Day 28. The series is classed as in vivo, nude mice. Details: key to Vascularization: 0: Decreased vascularity compared to normal dermis.; 1: Dermal vascularity within normal limits.; 2: Minimally increased prominence of dermal or wound capillaries.; 3: Mild increase in prominence of dermal or wound capillaries.; 4: Moderate increase in prominence of dermal or wound capillaries; key to Collagen quality: 0: Lack of fibroplasia and/or collagen in wound.; 1: Minimal to mild fibroplasia in the granulation tissue of the wound.; 2: Moderate fibroplasia and collagen throughout the wound.; 3: Superficial portion of the wound has dense collagen similar to normal dermal collagen.; 4: Dense collagen throughout the wound; key to Inflammation: 0: No increase in inflammatory cells (within normal limits for dermis of nude mice).; 1: Minimal increase in inflammatory cells.; 2: Mild increase in inflammatory cells.; 3: Moderate increase in inflammatory cells.; 4: Marked increase in inflammatory cells; key to Epithelization: 0: No re-epithelization.; 1: Partial re-epithelization. (Wound surface is not completely covered by epithelial cells.); 2: Re-epithelization across the full surface of the wound, but the epithelium is not a stratified squamous epithelium with multiple strata; 3: Re-epithelization across the full surface of the wound with a stratified squamous epithelium and keratinization, but there is evidence of active remodeling; 4: Complete re-epithelization with a keratinized stratified squamous epithelium with remodeling and organization within normal limits. Here is the method: In order to evaluate parameters of wound healing in the skin of nude mice from three groups, histopathological examination was carried out.
After the observation on Day 28, each mouse was sacrificed and a paraffin block containing the wound area, through the center of each wound perpendicular to the apparent longest axis was produced. A hematoxylin and eosin-stained and a trichrome-stained histologic sections were prepared from each block. Using the H&E-stained section, the epithelization, vascularization, and inflammation associated with the wound were ranked, and using the trichrome-stained section the amount and quality of collagen in the area of the wound were evaluated. The results of these evaluations were shown in Table 2-1 (control group), Table 2-2 (test group-1), and Table 2-3 (test group-2).
Definitions for each score are as follows.
0=No re-epithelization. 1=Partial re-epithelization. (Wound surface is not completely covered by epithelial cells.) 2=Re-epithelization across the full surface of the wound, but the epithelium is not a stratified squamous epithelium with multiple strata (stratum basale, stratum spinosum, stratum granulosum). 3=Re-epithelization across the full surface of the wound with a stratified squamous epithelium and keratinization, but there is evidence of active remodeling in the form of apoptotic or necrotic cells or dyskeratosis, or multiple mitotic figures, or irregular thickness or irregular strata (hyperplasia). 4=Complete re-epithelization with a keratinized stratified squamous epithelium with remodeling and organization within normal limits. (The only alteration is lack of hair follicles and adenexia in the dermis.)
0=Decreased vascularity compared to normal dermis. 1=Dermal vascularity within normal limits. […] Increased prominence may be due to increased number, dilation (congestion or hyperemia), or increased size. 3=Mild increase in prominence of dermal or wound capillaries. 4=Moderate increase in prominence of dermal or wound capillaries. <Inflammation> Inflammation consisted of increased number of neutrophils and macrophages in the dermis and scar tissue beneath the epidermis. […] 0=No increase in inflammatory cells (within normal limits for dermis of nude mice). 1=Minimal increase in inflammatory cells. Inflammation tends to be multifocal, perivascular. 2=Mild increase in inflammatory cells. Inflammation tends to be multifocal, perivascular. 3=Moderate increase in inflammatory cells. 4=Marked increase in inflammatory cells.
0=Lack of fibroplasia and/or collagen in wound. 1=Minimal to mild fibroplasia in the granulation tissue of the wound. 2=Moderate fibroplasia and collagen throughout the wound. 3=Superficial portion of the wound has dense collagen similar to normal dermal collagen. 4=Dense collagen throughout the wound. There are relatively fewer fibroblasts and the collagen is slightly denser than normal dermis.
Depth of collagen (μm) beneath the epithelium in the wound was estimated at the thickest portion of the collagen using an ocular micrometer that was calibrated with an objective micrometer (×10).

The conditions of series [2]: liquid when pH is not higher than 5.0; cited from earlier work.
For series [3], the system named is skin wound model mice (1 cm×1 cm wound). Nature of the series: Skin wound model of mice: wound area and observation of the affected area. The class given is in vivo, NTaC:NIHS-Foxn1 <nu> type nude mice. Here is the method:
30 NTaC:NIHS-Foxn1 type nude mice (female, weight ˜20 g) were used as experimental animals. The mice were housed in the condition of a temperature of 17 to 26° C., a relative humidity of 30 to 70%, a 12-hour light/dark cycle, minimum of ten fresh air changes/hour, and diet was provided once daily and the mice had access to water ad libitum.
Anesthesia was induced by placing the mice in a chamber filled with isoflurane at 2.5 to 4%, and maintained with isoflurane delivered through a nose cone at 0.5 to 2.5%.
All residual hair was removed from the upper right dorsum, and the operative area was cleaned with three alternating scrubs of povidone-iodine scrub and 70% alcohol. Once the alternating scrubs were complete, a final application of povidone-iodine scrub was applied and allowed to dry. The area was draped for aseptic surgery.
Forceps were used to pinch up a fold of skin (at what would become the lower right corner of the wound), and scissors were used to separate the skin and create a 1 cm×1 cm wound. Blood was soaked up with a sterile gauze pad.
(b-1) The centrifuge tube was placed into a cool water bath. The bath was sonicated for 30 min, and then the contents of the tube were vortexed for one minute. Air bubbles were then removed via centrifugation (3000 rpm, 1 min). Vortexing and centrifugation were repeated as necessary to remove all bubbles. The 1% PuraMatrix (trade mark) solution was prepared and administered to animals in test group-1.
(b-2) The 5 ng/μL hbFGF PBS solution (20 μL) was added to the sterile centrifuge tube previously containing 1 mL of 1% PuraMatrix (trade mark). The mixture was then vortexed to homogenize. The centrifuge tube was placed into the cool water bath and sonicated for 30 min, vortexed for 1 min, then centrifuged at room temperature (3000 rpm, 1 min) to remove air bubbles. Vortexing and centrifugation were repeated as necessary to remove all air bubbles. The PuraMatrix+hbFGF solution obtained was administered to animals in the test group-2.
The 30 skin wound model mice produced in (a) were divided into three groups of 10 mice, and treated according to the scheme in Table 1 immediately after the surgical procedure. The day when surgical procedure was performed (wound creation) was regarded as Day 0. Observation of wound area was performed at just before a treatment on Day 0 (FIG. 1), Day 7 (FIG. 2), Day 14 (FIG. 3), Day 21 (FIG. 4) and Day 28 (FIG. 5).
Baseline wound measurements were recorded prior to the application of the first dressing. Weekly measurements were obtained by removing the dressing of self-assembling hydropeptide gel (for the control group, a petroleum jelly impregnated gauze only) and exposing the wound site. A ruler was placed adjacent to the wound area and digital photographs were obtained, thereafter, the wound was re-dressed with the self-assembling hydropeptide gel (for the control group, a petroleum jelly impregnated gauze only). Wound area was calculated using ImageJ version 1.37 at the NIH website.

Where [4] appears, read: Day 28, compared to control group.
The mark [5] stands for this setting: rank score, Day 28, H&E-stained section, one value per mouse.

Several values for one entry are separate records, joined by “and”; a condition that tells them apart may be missing. Equal entries are not always repeated.

Turning to Ac-(RADA)4-CONH2 [PuraMatrix], the Collagen depth in series [1] (Day 28, beneath the epithelium at thickest portion of collagen, one value per mouse) is 550 μm (2×) and 250 μm (3×) and 470 μm and 500 μm (2×) and 540 μm and 200 μm. Besides, the “ranking of epithelization and vascularization across groups” value in series [1] (Day 28, compared across the three groups) was “little difference”. In series [1] (setting [4]), the “mice with an inflammation rank 0” value is given as “larger numbers of mice” and the “mice with dense collagen throughout the wound scar” value is “larger numbers of mice”. Further, the “typical state of wound area structure in pathological section” value in series [1] (Day 28, photomicrograph, compared to control group (FIG. 8, FIG. 9)) is given as “there is dense collagen so that the dermis 2 is slightly more stained”. For the same substance, in series [1] (Day 28, no mice in control group), the “mice with rank scores 4, 1, 0, 4 (most advanced wound healing)” value is listed as “one”. In series [1] (setting [5]), the Epithelization was 4 (5×) and 3 (5×); the Inflammation was 1 (5×) and 0 (3×) and 2 (2×); the Vascularization was 2 (6×) and 1 (4×). In addition, the Collagen quality in series [1] (rank score, Day 28, trichrome-stained section, one value per mouse) is 3 (3×) and 4 (7×). The “pH at which the peptide solution forms a gel (self-assembles into nanofibers)” value in series [2] is “higher than 5.0”. Also, in series [3] (Day 7, compared to control group (FIG. 2)), the wound area result is listed as “decreased drastically”. In series [3] (Day 7 and Day 14, compared to control group, 100 μL to wound area), the “healing rate (ratio of the wound area to the area when wound created, FIG. 6)” value was “healing more quickly than those in the control group”. The “healing of the wound area” value in series [3] (Day 14 (FIG. 3)) is given as “almost complete”. The “healing of the wounds” value in series [3] (Day 21 (FIG. 4)) is listed as “completely healed”. Also, in series [3] (Day 21, compared to control group (FIG. 4)), the puckering of skin result is “less puckering of skin”. In addition, the scar result in series [3] (Day 28, observation before dissection) is “visible in all animals”. The wound contraction noted in series [3] (Day 28, observation before dissection, all animals in control group (FIG. 5)) is listed as 8/10. Moreover, in series [3] (conclusion from Day 0-28 observations), the “overall wound healing effect” value is given as “significant healing effect visibly recognized”.
